Assay results: publication PMC3514216, “SRC Homology 2 Domain Binding Sites in Insulin, IGF-1 and FGF receptor mediated signaling networks reveal an extensive potential interactome” (Cell Communication and Signaling : CCS, 2012)

Tests used:
Ptpn11_N SH2 domain [1] = biological target: T1, Ptpn11_N SH2 domain (Homo sapiens, UniProt Q06124); test: Fluorescence polarization solution binding; conditions: Rhodamine B-labeled peptide, GST-SH2, Beacon 2000, read-out: Affinity (KD)
T1 sequence (Q06124 6-102 limits assumed): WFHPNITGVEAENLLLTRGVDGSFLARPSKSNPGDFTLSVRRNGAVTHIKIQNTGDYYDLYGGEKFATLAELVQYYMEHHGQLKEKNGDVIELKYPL
From the text: To verify the binding results obtained from addressable peptide arrays we employed an orthogonal method of determining SH2 interactions with peptide ligands. We measured the dissociation constants of 60 binary SH2-peptide pairs in solution by fluorescence polarization (Table 2, Additional file 2: Figures S3A-C).
Peptides were synthesized using FMOC-chemistry onto pre-loaded tenta-gel resins. Peptides were then labeled with Rhodamine B (Abbey Color) and then cleaved using trifluoroacetic acid. Peptides were lyophilized and then purified using a LC/MS (Agilent 2100). Dissociation constants were measured using the Beacon 2000 (Invitrogen) as previously described.
Binding Affinities determined by Fluorescence Polarization. Rhodamine B-labeled peptides were mixed with varying concentrations of GST-tagged SH2 domains. Fluorescence polarization measurements were read on a Beacon 2000 (Invitrogen). The curves were fit to a Michaelis-Menten equation to calculate the dissociation constant, KD. […] (C) Affinity measurements that fell below the 2X mean intensity and were considered array negative on the SPOT array.

PI3K1_N SH2 domain [2] = biological target: T2, PI3K1_N SH2 domain (Homo sapiens, UniProt P27986); test: SPOT peptide array; assay type: binding; conditions: GST-SH2 0.25 μM, membrane-bound peptide, 1 mM DTT, LiCor read-out
T2 sequence (P27986 333-428 limits assumed): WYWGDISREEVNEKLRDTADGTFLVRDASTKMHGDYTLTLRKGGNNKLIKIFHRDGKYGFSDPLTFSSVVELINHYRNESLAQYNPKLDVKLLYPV
From the text: (§1) The use of addressable peptide arrays is a reproducible and semi-quantitative approach that has been extensively validated for studying protein interactions with peptide ligands. To investigate connections between SH2 domain proteins and their putative phosphorylated docking sites on cell surface receptors, we developed addressable arrays consisting of 192 phosphotyrosine peptides. This peptide set was assembled using 71 phosphotyrosine peptide motifs corresponding to all of the cytoplasmic tyrosine residues within the FGF receptors (FGFR1-4), insulin receptor (InsR) and IGF-1 receptor (IGF-1R) (Figure 1A). Activation of these receptors results in the phosphorylation of associated scaffold proteins, and so 75 phosphotyrosine peptides corresponding to a comprehensive list of tyrosine residues within insulin receptor substrates (IRS-1 and IRS-2) and fibroblast receptor substrates (FRS-2 and FRS-3) were included. In addition, 33 phosphotyrosine peptides were incorporated from the downstream signaling proteins PLC-γ1, p130Cas (BCAR1) and p62DOK1. […] These control peptides provide a reference and establish the empirical cut-off for designated binding interactions (Table 1). No discrimination was made against peptides on the basis of reported phosphorylation state in order to examine a diverse and unbiased set of motifs. The resulting set of 192 phosphotyrosine peptides and their corresponding position in the proteins of origin is noted in Additional file 1: Table S1. Addressable arrays were synthesized as membrane-bound 11-mer peptides using the SPOT synthesis technique. While the majority of SH2 domains recognize residues C-terminal to the phosphotyrosine in their cognate peptide ligands, additional contacts between SH2 domains and residues N-terminal to the phosphotyrosine are observed for the SH2 domain of Sh2d1a (SAP) and cannot be ruled out in other cases. Peptides were synthesized with six flanking residues C-terminal to the phosphotyrosine and four residues N-terminal to the phosphotyrosine.
(§2) SH2 domains were arrayed as GST fusion proteins and detected using anti-GST primary antibodies and near-infrared labeled secondary antibodies. In an effort to present a dataset with minimal false positives, we chose an empirical cutoff based on the array average across all peptide spots to classify interactions (Figure 1A). In cases where the intensity of the signal for an individual SH2-domain binding event exceeded the mean intensity of all the peptides on the membrane by three-fold were scored as “array positives” [22]. Non-binding was judged in cases where the intensity of a spot was less than the mean intensity of all spots on the membrane and these were scored as “array negatives”. Peptides with signal intensities between 1X and 3X mean were scored as “indeterminate” and ascribed as neither array positive binding interactions nor array-negative non-binders. […] This signature may be indicative of promiscuity differences between phosphopeptides or there may be a subset of peptides which interact in a nonspecific fashion with either the GST fusion tag or one of the antibodies used for detection, resulting in false positives. Consistent with our goal of reducing the errors associated with identifying false-positives, we probed three separate arrays with three separate preps of the GST fusion tag alone. Potentially non-specificly interacting peptides (so-called ‘sticky’ peptides) were identified as any that bound to GST with above mean intensity in two out of three separate trials. This approach identifies any peptides which interact with GST or either of the recognition antibodies, a known confounding factor for downstream analysis. This conservative approach allows us to score many significant peptides as ‘binders’ which may have been indeterminate before when incorporating the ‘sticky’ peptides into the array average. […]

PI3K1_N SH2 domain [3] = biological target: T2, PI3K1_N SH2 domain; parameters: method as in PMID 8384875; conditions: cited from earlier work
Crk SH2 domain = Crk SH2 domain (Homo sapiens, UniProt P46108); parameters: method as in earlier work; conditions: SH2 protein microarray; N.B. = non binding; read-out: Protein Microarray (Macbeath) – KD; cited from earlier work
Chain of Crk SH2 domain (P46108 13-118 limits assumed): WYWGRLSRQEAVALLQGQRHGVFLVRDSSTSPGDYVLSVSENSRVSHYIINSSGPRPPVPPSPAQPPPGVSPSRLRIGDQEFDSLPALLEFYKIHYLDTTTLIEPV

[4] = test system: Plcγ SH2 domain (N or C not specified); test: SPOT peptide array; assay type: binding; conditions: GST-SH2 0.25 μM, membrane-bound peptide, 1 mM DTT, LiCor read-out
From the text: as §1, §2

panel of 50 SH2 domains = test: SPOT peptide array probed with each of 50 GST-SH2 domains; assay type: binding; conditions: SH2 domains with intensity >3X array mean; GST-SH2 0.25 μM, 1 mM DTT
In short: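 Each GST-fused SH2 domain was overlaid on 192 membrane-synthesized pTyr peptides (11-mers, 4 N-terminal and 6 C-terminal flanking residues) and read with anti-GST and near-infrared secondary antibodies. Binding called relative to membrane mean intensity (>3× positive, <1× negative); GST-only probes defined nonspecific peptides.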

Fyn SH2 domain = test: SPOT peptide array; assay type: binding; conditions: GST-SH2 0.25 μM
From the text: as §1, §2

Ptpn11_C SH2 domain = test: SPOT peptide array; assay type: binding; conditions: GST-SH2 0.25 μM
From the text: as §1, §2

Ptpn11_N SH2 domain [5] = biological target: T1, Ptpn11_N SH2 domain; test: SPOT peptide array; assay type: binding; conditions: GST-SH2 0.25 μM
From the text: as §1, §2

Plcγ-C SH2 domain = test: SPOT peptide array; assay type: binding; conditions: spot intensity as factor of array mean; GST-SH2 0.25 μM
From the text: as §1, §2

Plcγ-N SH2 domain = test: SPOT peptide array; assay type: binding; conditions: spot intensity as factor of array mean; GST-SH2 0.25 μM
From the text: as §1, §2

Shb SH2 domain = Shb SH2 domain (Homo sapiens, UniProt Q15464); test: SPOT peptide array; assay type: binding; conditions: GST-SH2 0.25 μM
Chain of Shb SH2 domain (Q15464 410-504 limits assumed): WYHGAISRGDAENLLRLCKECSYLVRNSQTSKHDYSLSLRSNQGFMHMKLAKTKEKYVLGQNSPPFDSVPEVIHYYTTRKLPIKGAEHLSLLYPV
From the text: as §1, §2

Abl2 SH2 domain = biological target: T3, Abl2 SH2 domain (Homo sapiens, UniProt P42684); parameters: method as in earlier work; conditions: SH2 protein microarray; N.B. = non binding; read-out: Protein Microarray (Macbeath) – KD; cited from earlier work
T3 sequence (P42684 173-263 limits assumed): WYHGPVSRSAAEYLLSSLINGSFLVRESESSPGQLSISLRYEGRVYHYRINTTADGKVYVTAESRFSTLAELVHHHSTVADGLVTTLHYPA

CrkL SH2 domain = CrkL SH2 domain (Homo sapiens, UniProt P46109); parameters: method as in earlier work; conditions: SH2 protein microarray; N.B. = non binding; read-out: Protein Microarray (Macbeath) – KD; cited from earlier work
Chain of CrkL SH2 domain (P46109 14-102 limits assumed): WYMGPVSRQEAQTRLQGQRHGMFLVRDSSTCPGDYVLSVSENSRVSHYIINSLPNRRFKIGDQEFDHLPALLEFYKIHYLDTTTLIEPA

Ptpn11_N SH2 domain [6] = biological target: T1, Ptpn11_N SH2 domain; parameters: method as in 5 sources, one per row (each row's own in cited_ref): ref [107] = [107]; PMID 8144631; Case RD Piccione E Wolf G Benett AM Lechleider RJ Neel BG Shoelson SE SH-PTP2/Syp SH2 domain binding specificity is defined by direct interactions with platelet-derived growth factor beta-receptor, ep ||| ref [107, 108] = [107]; PMID 8144631; Case RD Piccione E Wolf G Benett AM Lechleider RJ Neel BG Shoelson SE SH-PTP2/Syp SH2 domain binding specificity is defined by direct interactions with platelet-derived growth factor beta-receptor, ep || [108]; PMID 7504175; doi:10.1128/mcb.13.12.7418-7428.1993; Sun XJ Crimmins DL Myers MG Jr Miralpeix M White MF Pleiotropic insulin signals are engaged by multisite phosphorylation of IRS-1 Mol Cell Biol 1993 13 7418 7428 7504175 10.1128/mcb.13.12.7418-7428.19 ||| ref [95, 108, 110] = [95]; PMID 9422724; doi:10.1074/jbc.273.2.729; Ottinger EA Botfield MC Shoelson SE Tandem SH2 domains confer high specificity in tyrosine kinase signaling J Biol Chem 1998 273 729 735 9422724 10.1074/jbc.273.2.729 || [108]; PMID 7504175; doi:10.1128/mcb.13.12.7418-7428.1993; Sun XJ Crimmins DL Myers MG Jr Miralpeix M White MF Pleiotropic insulin signals are engaged by multisite phosphorylation of IRS-1 Mol Cell Biol 1993 13 7418 7428 7504175 10.1128/mcb.13.12.7418-7428.19 || [110]; PMID 9756938; doi:10.1074/jbc.273.41.26908; Myers MG Jr Mendez R Shi P Pierce JH Rhoads R White MF The COOH-terminal tyrosine phosphorylation sites on IRS-1 bind SHP-2 and negatively regulate insulin signaling J Biol Chem 1998 273 26908 26914 9 ||| ref 107 (IRS-1 Y896 also 108) ||| ref 95, 108, 110 = [95]; PMID 9422724; doi:10.1074/jbc.273.2.729; Ottinger EA Botfield MC Shoelson SE Tandem SH2 domains confer high specificity in tyrosine kinase signaling J Biol Chem 1998 273 729 735 9422724 10.1074/jbc.273.2.729 || [108]; PMID 7504175; doi:10.1128/mcb.13.12.7418-7428.1993; Sun XJ Crimmins DL Myers MG Jr Miralpeix M White MF Pleiotropic insulin signals are engaged by multisite phosphorylation of IRS-1 Mol Cell Biol 1993 13 7418 7428 7504175 10.1128/mcb.13.12.7418-7428.19 || [110]; PMID 9756938; doi:10.1074/jbc.273.41.26908; Myers MG Jr Mendez R Shi P Pierce JH Rhoads R White MF The COOH-terminal tyrosine phosphorylation sites on IRS-1 bind SHP-2 and negatively regulate insulin signaling J Biol Chem 1998 273 26908 26914 9; conditions: ref 107 (IRS-1 Y896 also 108); read-out: Relative affinity (IC50); cited from earlier work
[7] = membrane-bound peptide, 1 mM DTT, LiCor read-out
[8] = spot intensity as factor of array mean

CC(C)[C@H](NC(=O)[C@H](CC(=O)O)NC(=O)[C@H](CCC(=O)O)NC(=O)[C@H](C)N)C(=O)N[C@@H](Cc1ccc(OP(=O)(O)O)cc1)C(=O)N[C@@H](CC(=O)O)C(=O)N[C@H](C(=O)N1CCC[C@H]1C(=O)N1CCC[C@H]1C(=O)N1CCC[C@H]1C(=O)N[C@@H](C)C(=O)O)C(C)C [AEDVpYDVPPPA]
Kd (Ptpn11_N SH2 domain [1]): > 50 µM

GSGDpYMPMSPK [11-mer phosphotyrosine peptide, printed as IRS-1 (Y612); footnote says Y632]
Array positive (PI3K1_N SH2 domain [2]): No (Peptide spots with average intensity values between 1X-3X the array mean were defined as ‘indeterminate’. Those with intensities below 1X mean were defined as array negative) | Relative affinity (ID50) (PI3K1_N SH2 domain [3]): ID50 = 0.7-1.1 μM

ARDIHHIDYpYKKTTNGRD (ARDIHHIDYYKKTTNGRD)
Kd (Crk SH2 domain): 1.11 µM

VSEEYLDLRLT [11-mer peptide, FGFR4 (754)]
Array positive [4]: No (Peptide spots with average intensity values between 1X-3X the array mean were defined as ‘indeterminate’. Those with intensities below 1X mean were defined as array negative) | Other SH2 domains bound (additional array-positive SH2 domains) (panel of 50 SH2 domains): SHD

DLSApYASISFQ [11-mer phosphotyrosine peptide, IRS-1 (Y1229)]
Array positive (Fyn SH2 domain; [7]): No (Peptide spots with average intensity values between 1X-3X the array mean were defined as ‘indeterminate’. Those with intensities below 1X mean were defined as array negative) | Peptide array intensity (X mean) (Fyn SH2 domain; [8]): 0.48 X Mean | Array positive (Ptpn11_C SH2 domain; [7]): No (Peptide spots with average intensity values between 1X-3X the array mean were defined as ‘indeterminate’. Those with intensities below 1X mean were defined as array negative) | Peptide array intensity (X mean) (Ptpn11_C SH2 domain; [8]): 1.59 X Mean | Array positive (Ptpn11_N SH2 domain [5]; [7]): No (Peptide spots with average intensity values between 1X-3X the array mean were defined as ‘indeterminate’. Those with intensities below 1X mean were defined as array negative) | Peptide array intensity (X mean) (Ptpn11_N SH2 domain [5]; [8]): 2.78 X Mean

SNQEpYLDLSMP [11-mer phosphotyrosine peptide, FGFR1 (Y766)]
Array positive [4]: No (Peptide spots with average intensity values between 1X-3X the array mean were defined as ‘indeterminate’. Those with intensities below 1X mean were defined as array negative) | Peptide array intensity (X mean) (Plcγ-C SH2 domain): 0.21 X Mean | Peptide array intensity (X mean) (Plcγ-N SH2 domain): 0.52 X Mean | Array positive (Shb SH2 domain; [7]): No (Peptide spots with average intensity values between 1X-3X the array mean were defined as ‘indeterminate’. Those with intensities below 1X mean were defined as array negative) | Peptide array intensity (X mean) (Shb SH2 domain; [8]): 0.45 X Mean

SSKDLVSCApYQVARGMED (SSKDLVSCAYQVARGMED)
Kd (Crk SH2 domain): 0.26 µM | Kd (Abl2 SH2 domain): 0.012 µM | Kd (CrkL SH2 domain): 0.24 µM

ELSNpYICMGGK (ELSNYICMGGK) [11-mer phosphotyrosine peptide, IRS-1 (Y465)]
IC50 (Ptpn11_N SH2 domain [6]): 48 ± 16 µM

DLSApYASISFQ (DLSAYASISFQ) [11-mer phosphotyrosine peptide, IRS-1 (Y1229)]
IC50 (Ptpn11_N SH2 domain [6]): 25 ± 4.2 µM

DPNGpYMMMSPS (DPNGYMMMSPS) [11-mer phosphotyrosine peptide, IRS-1 (Y662)]
IC50 (Ptpn11_N SH2 domain [6]): 96 ± 13 µM

SIEEpYTEMMPA (SIEEYTEMMPA) [11-mer phosphotyrosine peptide, IRS-1 (Y551)]
IC50 (Ptpn11_N SH2 domain [6]): 11 ± 1 µM
